pIC50: −log10 of the molar value. Active and inactive are the calls of the source. No cut-off for these calls is given here.
Legend:
[1] = test system: MV4-11; experiment: Induction of apoptosis in human MV4-11 cells assessed as increase in cleaved PARP1 level at 100 nM incubated for 24 hrs by Western blot analysis; type: functional, cell-based
[2] = target: Cyclin-dependent kinase 2/cyclin E1 (Homo sapiens, UniProt P24941); experiment: Inhibition of CDK2/cyclin E1 (unknown origin) in presence of [32P]gammaATP by image analyser; type: protein-complex assay
[3] = test system: MV4-11; experiment: Induction of apoptosis in human MV4-11 cells assessed as caspase 3 activation using fluorescent substrate Ac-DEVD-AMC at 100 nM incubated for 24 hrs by Western blot analysis; type: functional, cell-based
[4] = target: Receptor-type tyrosine-protein kinase FLT3 (Homo sapiens) (UniProt P36888); experiment: Inhibition of FLT3 in human MV4-11 cells assessed as ERK1/2 phosphorylation at 20 to 100 nM incubated for 1 hrs by Western blot analysis; type: cell-based; settings: dose 20-100 nM
[5] = test system: MOLM-14; experiment: Antiproliferative activity against human MOLM-14 cells harboring D835Y mutant assessed as cell death measured after 72 hrs by resazurin dye based assay; type: functional; settings: MOLM-14, 72 h
[6] = test system: BaF3; experiment: Antiproliferative activity against mouse BaF3 cells harboring FLt3 ITD mutant assessed as cell death measured after 72 hrs by resazurin dye based assay; type: functional; settings: BaF3, 72 h
[7] = target: Receptor-type tyrosine-protein kinase FLT3 (Homo sapiens, UniProt P36888, ITD)
[8] = test system: SEM cells; experiment: Antiproliferative activity against human SEM cells assessed as cell death measured after 72 hrs by resazurin dye based assay; type: functional
[9] = test system: BaF3; experiment: Antiproliferative activity against mouse BaF3 cells assessed as cell death measured after 72 hrs by resazurin dye based assay; type: functional; settings: BaF3, 72 h
[10] = target: CDK9/cyclin T1 (Homo sapiens, UniProt P50750); experiment: Inhibition of CDK9/cyclin T1 (unknown origin) in presence of [32P]gammaATP by image analyser; type: protein-complex assay
[11] = test system: MV4-11; experiment: Induction of apoptosis in human MV4-11 cells assessed as effect on Bcl2 level at 100 nM incubated for 24 hrs by Western blot analysis; type: functional, cell-based
[12] = test system: MV4-11; experiment: Induction of apoptosis in human MV4-11 cells assessed as decrease in MCL1 level at 100 nM incubated for 24 hrs by Western blot analysis; type: functional, cell-based
[13] = test system: THP-1; experiment: Antiproliferative activity against human THP-1 cells assessed as cell death measured after 72 hrs by resazurin dye based assay; type: functional; settings: THP-1, 72 h
[14] = target: Cyclin-dependent kinase 1/cyclin B1 (Homo sapiens, UniProt P06493); experiment: Inhibition of CDK1/cyclin B1 (unknown origin) in presence of [32P]gammaATP by image analyser; type: protein-complex assay
[15] = target: Receptor-type tyrosine-protein kinase FLT3 (Homo sapiens) (UniProt P36888); experiment: Inhibition of FLT3 in human MV4-11 cells assessed as STAT5 phosphorylation at Y694 at 20 to 100 nM incubated for 1 hrs by Western blot analysis; type: cell-based; settings: dose 20-100 nM
[16] = target: CDK2/Cyclin A1 (Homo sapiens, UniProt P24941); type: protein-complex assay
Description: Inhibition of CDK2/Cyclin A1 (unknown origin) at 1 uM using histone H1 as substrate preincubated for 20 mins followed by 33P-ATP addition and measured after 2 hrs by filter binding method

[17] = test system: MOLM-13; experiment: Antiproliferative activity against human MOLM-13 cells assessed as cell death measured after 72 hrs by resazurin dye based assay; type: functional; settings: MOLM-13, 72 h
[18] = test system: MOLM-14; experiment: Antiproliferative activity against human MOLM-14 cells harboring F691L mutant assessed as cell death measured after 72 hrs by resazurin dye based assay; type: functional; settings: MOLM-14, 72 h
[19] = test system: CCRF-CEM; experiment: Antiproliferative activity against human CCRF-CEM cells assessed as cell death measured after 72 hrs by resazurin dye based assay; type: functional
[20] = test system: MV4-11; experiment: cells; settings: Homo sapiens, MV4-11, 72 h
Description: Antiproliferative activity against human MV4-11 cells assessed as cell death measured after 72 hrs by resazurin dye based assay

[21] = target: Cyclin-dependent kinase 4/cyclin D1 (Homo sapiens, UniProt P11802); experiment: Inhibition of CDK4/cyclin D1 (unknown origin) in presence of [32P]gammaATP by image analyser; type: protein-complex assay
[22] = target: Receptor-type tyrosine-protein kinase FLT3 (Homo sapiens) (UniProt P36888); experiment: Inhibition of FLT3 autophosphorylation in human MV4-11 cells at 20 to 100 nM incubated for 1 hrs by Western blot analysis; type: cell-based; settings: dose 20-100 nM
[23] = test system: K562; experiment: cells; settings: Homo sapiens, K562, 72 h
Description: Antiproliferative activity against human K562 cells assessed as cell death measured after 72 hrs by resazurin dye based assay

[24] = test system: MOLM-14; experiment: Antiproliferative activity against human MOLM-14 cells assessed as cell death measured after 72 hrs by resazurin dye based assay; type: functional; settings: MOLM-14, 72 h
[25] = target: CDK2/Cyclin A2 (Homo sapiens, UniProt P24941); experiment: Inhibition of CDK2/cyclin A2 (unknown origin) in presence of [32P]gammaATP by image analyser; type: protein-complex assay
[26] = test system: MV4-11; experiment: Induction of apoptosis in human MV4-11 cells assessed as caspase 7 activation using fluorescent substrate Ac-DEVD-AMC at 100 nM incubated for 24 hrs by Western blot analysis; type: functional, cell-based
[27] = target: T1, Receptor-type tyrosine-protein kinase FLT3 (Homo sapiens, UniProt P36888); experiment: Inhibition of wild type FLT3 (unknown origin) using AGLT peptide substrate in presence of [32P]gammaATP by image analyser
T1 sequence (P36888 whole entry): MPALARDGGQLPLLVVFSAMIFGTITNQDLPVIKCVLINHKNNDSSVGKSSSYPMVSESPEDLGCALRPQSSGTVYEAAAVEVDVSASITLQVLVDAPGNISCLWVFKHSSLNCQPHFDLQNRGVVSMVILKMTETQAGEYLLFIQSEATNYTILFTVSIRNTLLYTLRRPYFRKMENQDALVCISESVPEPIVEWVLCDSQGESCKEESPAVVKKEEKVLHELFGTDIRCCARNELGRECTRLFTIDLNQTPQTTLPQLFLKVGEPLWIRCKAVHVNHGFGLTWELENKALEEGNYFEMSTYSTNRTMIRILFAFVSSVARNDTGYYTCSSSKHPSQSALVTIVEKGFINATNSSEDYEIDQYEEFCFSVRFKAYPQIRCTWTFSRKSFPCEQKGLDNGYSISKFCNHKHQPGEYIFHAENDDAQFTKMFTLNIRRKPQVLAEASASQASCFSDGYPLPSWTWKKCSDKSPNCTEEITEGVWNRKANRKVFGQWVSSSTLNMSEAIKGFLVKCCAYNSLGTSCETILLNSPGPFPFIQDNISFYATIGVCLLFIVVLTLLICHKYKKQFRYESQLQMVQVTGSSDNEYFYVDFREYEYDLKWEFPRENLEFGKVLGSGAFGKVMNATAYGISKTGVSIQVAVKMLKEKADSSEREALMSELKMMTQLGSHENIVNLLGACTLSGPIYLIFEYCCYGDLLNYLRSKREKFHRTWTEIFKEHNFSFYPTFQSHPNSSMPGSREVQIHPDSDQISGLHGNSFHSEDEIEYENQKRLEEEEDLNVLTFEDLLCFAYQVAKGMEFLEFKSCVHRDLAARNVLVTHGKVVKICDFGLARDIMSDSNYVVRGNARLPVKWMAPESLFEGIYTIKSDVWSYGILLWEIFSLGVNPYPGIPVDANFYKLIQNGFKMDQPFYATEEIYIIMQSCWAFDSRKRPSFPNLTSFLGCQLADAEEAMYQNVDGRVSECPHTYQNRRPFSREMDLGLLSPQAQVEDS

[28] = test system: U-937; experiment: Antiproliferative activity against human U-937 cells assessed as cell death measured after 72 hrs by resazurin dye based assay; type: functional; settings: U-937, 72 h

Cyclin-dependent kinase 4/cyclin D1, sequence (P11802 whole entry): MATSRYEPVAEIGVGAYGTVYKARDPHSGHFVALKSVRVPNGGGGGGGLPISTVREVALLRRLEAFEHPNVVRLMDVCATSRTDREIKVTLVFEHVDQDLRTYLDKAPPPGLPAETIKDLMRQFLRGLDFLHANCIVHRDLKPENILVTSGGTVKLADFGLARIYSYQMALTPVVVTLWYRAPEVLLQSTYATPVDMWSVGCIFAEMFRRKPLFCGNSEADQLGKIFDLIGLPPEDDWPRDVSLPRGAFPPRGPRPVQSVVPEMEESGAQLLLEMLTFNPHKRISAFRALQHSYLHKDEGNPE
Cyclin-dependent kinase 4/cyclin D1, sequence (P24385 whole entry, further chain): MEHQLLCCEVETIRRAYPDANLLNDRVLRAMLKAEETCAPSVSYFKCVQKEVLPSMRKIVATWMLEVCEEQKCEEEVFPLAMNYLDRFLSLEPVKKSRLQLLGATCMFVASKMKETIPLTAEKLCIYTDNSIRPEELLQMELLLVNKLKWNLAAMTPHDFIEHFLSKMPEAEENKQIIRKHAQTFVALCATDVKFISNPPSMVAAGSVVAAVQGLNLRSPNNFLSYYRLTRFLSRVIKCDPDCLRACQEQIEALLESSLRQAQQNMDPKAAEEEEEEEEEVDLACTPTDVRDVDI
Cyclin-dependent kinase 1/cyclin B1, sequence (P06493 whole entry): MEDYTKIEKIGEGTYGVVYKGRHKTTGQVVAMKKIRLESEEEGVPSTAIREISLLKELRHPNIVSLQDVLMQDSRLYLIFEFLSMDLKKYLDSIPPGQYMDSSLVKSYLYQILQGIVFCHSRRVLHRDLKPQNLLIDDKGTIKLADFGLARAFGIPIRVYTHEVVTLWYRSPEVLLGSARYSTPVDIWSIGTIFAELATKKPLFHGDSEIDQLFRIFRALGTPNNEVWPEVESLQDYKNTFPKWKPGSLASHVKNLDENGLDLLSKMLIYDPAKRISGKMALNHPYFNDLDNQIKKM
Cyclin-dependent kinase 1/cyclin B1, sequence (P14635 whole entry, further chain): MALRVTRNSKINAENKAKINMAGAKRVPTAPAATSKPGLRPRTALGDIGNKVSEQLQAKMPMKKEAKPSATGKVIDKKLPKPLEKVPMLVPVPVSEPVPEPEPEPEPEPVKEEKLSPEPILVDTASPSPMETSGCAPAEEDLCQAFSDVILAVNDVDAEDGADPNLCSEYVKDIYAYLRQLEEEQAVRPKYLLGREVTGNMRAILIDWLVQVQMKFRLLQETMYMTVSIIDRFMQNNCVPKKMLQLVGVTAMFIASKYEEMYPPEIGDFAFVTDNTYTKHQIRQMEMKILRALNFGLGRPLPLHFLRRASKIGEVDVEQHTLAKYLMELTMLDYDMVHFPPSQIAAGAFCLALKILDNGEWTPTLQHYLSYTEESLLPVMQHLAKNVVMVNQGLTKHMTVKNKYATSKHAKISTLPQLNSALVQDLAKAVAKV
CDK9/cyclin T1, sequence (O60563 whole entry): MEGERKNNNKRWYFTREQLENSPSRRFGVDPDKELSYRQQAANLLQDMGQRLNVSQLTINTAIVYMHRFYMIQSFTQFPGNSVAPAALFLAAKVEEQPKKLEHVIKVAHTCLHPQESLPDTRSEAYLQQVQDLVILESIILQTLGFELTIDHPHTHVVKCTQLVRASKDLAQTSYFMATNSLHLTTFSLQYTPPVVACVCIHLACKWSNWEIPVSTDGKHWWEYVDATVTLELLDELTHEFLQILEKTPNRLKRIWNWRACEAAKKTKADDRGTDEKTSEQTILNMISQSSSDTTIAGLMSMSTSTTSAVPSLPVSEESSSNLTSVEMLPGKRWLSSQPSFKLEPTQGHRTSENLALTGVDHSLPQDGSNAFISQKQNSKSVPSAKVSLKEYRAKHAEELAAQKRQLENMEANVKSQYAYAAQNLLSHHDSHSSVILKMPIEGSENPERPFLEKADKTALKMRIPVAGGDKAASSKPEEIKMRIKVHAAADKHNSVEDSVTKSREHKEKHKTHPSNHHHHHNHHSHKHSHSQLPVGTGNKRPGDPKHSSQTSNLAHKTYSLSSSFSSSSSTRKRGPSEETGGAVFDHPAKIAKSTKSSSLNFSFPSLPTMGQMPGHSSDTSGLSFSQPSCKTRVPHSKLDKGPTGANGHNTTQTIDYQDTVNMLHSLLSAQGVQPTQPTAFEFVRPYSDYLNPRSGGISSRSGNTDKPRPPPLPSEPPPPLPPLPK
CDK9/cyclin T1, sequence (P50750 whole entry): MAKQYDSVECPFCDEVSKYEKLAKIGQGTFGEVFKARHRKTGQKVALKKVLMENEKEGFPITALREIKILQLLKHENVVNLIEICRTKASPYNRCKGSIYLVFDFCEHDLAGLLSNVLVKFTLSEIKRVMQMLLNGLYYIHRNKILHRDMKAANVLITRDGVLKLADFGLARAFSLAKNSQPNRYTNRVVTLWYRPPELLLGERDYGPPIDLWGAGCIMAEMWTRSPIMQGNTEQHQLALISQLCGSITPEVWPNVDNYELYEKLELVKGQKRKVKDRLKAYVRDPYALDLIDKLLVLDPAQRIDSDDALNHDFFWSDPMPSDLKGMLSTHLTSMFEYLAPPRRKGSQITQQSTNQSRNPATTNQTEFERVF

Compound | pIC50 [2] | pIC50 [5] | pIC50 [6] | pIC50 [7] | pIC50 [8] | pIC50 [9] | pIC50 [10] | pIC50 [13] | pIC50 [14] | pIC50 [16] | pIC50 [17] | pIC50 [18] | pIC50 [19] | pIC50 [20] | pIC50 [21] | pIC50 [23] | pIC50 [24] | pIC50 [25] | pIC50 [27] | pIC50 [28] | also measured
Fc1cc2[nH]ncc2c2c3c(c(-c4c[nH]nc4C(F)(F)F)nc12)C1CCC3C1 (stereo unspecified) | 7.51 | 7.89 | 7.46 | 7.80 | 6.82 | 5.24 | 6.01 | 5.50 | 7.14 | 7.31 | 8.22 | 7.19 | 5.09 | 7.31 | < 6.00 | 5.12 | 7.62 | 7.31 | 7.55 | 5.65 | Activity [1]: Active; Activity [3]: Active; inhibition [4]: inactive; Activity [11]: Active; Activity [12]: Active; inhibition [15]: Active; inhibition [22]: Active; Activity [26]: Active
Cc1n[nH]c2cc(F)c3nc(-c4c[nH]nc4C(F)(F)F)c4c(c3c12)CCCC4 | 6.74 | 8.15 | 7.80 | 9.00 | 6.95 | 5.22 | < 6.00 | 5.55 | 6.85 | 6.80 | 8.15 | 7.32 | 5.24 | 7.70 | < 6.00 | 5.04 | 7.85 | 6.80 | 8.15 | 5.59 | Activity [1]: Active; Activity [3]: Active; inhibition [4]: inactive; Activity [11]: Active; Activity [12]: Active; inhibition [15]: Active; inhibition [22]: Active; Activity [26]: Active
Fc1cc2[nH]ncc2c2c3c(c(-c4cn[nH]c4)nc12)CCCC3 | 7.26 | 7.34 | 6.09 | 7.37 | 5.98 | 4.82 | 6.71 | 5.72 | 6.92 | 7.41 | 7.31 | 7.30 | 5.26 | 7.66 | < 6.00 | 5.48 | 7.10 | 7.41 | 7.68 | 5.50 | 

— ChEMBL document CHEMBL4834472 (J Med Chem, 2021)
